Measurements taken from patent publication US20240251783A1, “COMPOSITIONS AND METHODS FOR LUNG PRESERVATION” (University Health Network, priority 2021, published 2024).

How the values were obtained:
[1] = tested on: human pulmonary microvascular endothelial cells (HPMEC); experiment: Cell culture model simulating hypothermic lung preservation and warm reperfusion; MTS cell viability; assay type: cell-based; settings: 42 h CIT
Description: (§1) Human lung epithelial (BEAS-2B) cells or human pulmonary microvascular endothelial cells (HPMEC) were cultured to confluence at 37° C., 5% CO2 in DMEM (Gibco; Waltham MA) with 10% of fetal bovine serum (FBS, Gibco), or in M199 medium (Thermo Scientific, Waltham MA) with 20% of FBS, respectively. After cells reached confluence, medium was replaced with different testing solutions, and cells were switched to a chamber at 4° C. with 50% O2 to simulate hypothermic lung preservation. After different periods of cold ischemic time (CIT), cells were switched back to DMEM+10% FBS or M199+20% FBS at 37° C. with 5% CO2 for 4 h to simulate reperfusion. Cell morphology was recorded with phase contrast microscopy.
(§2) CellTiter 96® AQueous One Solution Cell Proliferation Assay (MTS) was used to determine effects of different solutions on cell viabilities. Cells were seeded in 96-well plates at 15,000 cells/100 μl/well, and incubated with serum containing culture medium as described above, at 37° C./5% CO2 overnight. After switching to different preservation solutions for various periods of CIT, and followed by 3 h simulated reperfusion, and then 20 μl of CellTiter 96@ AQueousOne Solution (Promega; Madison, WI) was added to each well. After additional 1 h incubation, optical density of each well was measured using a plate reader (Biotek Instrument Inc., Winooski, VT) set to 490 nm.

[2] = tested on: Human lung epithelial (BEAS-2B) cells; experiment: Cell culture model simulating hypothermic lung preservation and warm reperfusion; MTS cell viability and phase contrast morphology; assay type: cell-based; settings: 42 h CIT
Description: as §1, §2

## dextran 40
[1]; 50 mg/ml added to M199(p)
  effect of addition of dextran 40 on cell viability: further significantly improved cell viability
[1]; 50 mg/ml added to RPMI-1640(p)
  effect of addition of dextran 40 on cell viability: not further enhanced
[2]; 50 mg/ml added to M199(p)
  effect of addition of dextran 40 on cell viability: further significantly improved cell viability
[2]; 50 mg/ml added to RPMI-1640(p)
  effect of addition of dextran 40 on cell viability: not further enhanced
